# US4231928A, “Antibacterial agents” (priority 1979, dated 1980)
# Like-named read-outs stand apart in the source and are kept apart here.
# Assays:
# D. pneumoniae = assay: Tube dilution (Nutrient broth), D. pneumoniae; assay type: cell-based; conditions: Streptococcus pneumoniae, Dp-4 D. pneumoniae A9585, Table 3
# Protocol: (§1) The MIC's of BB-P598 against various organisms were also determined by the tube dilution method (Nutrient broth), and the results, compared with sulbenicillin, are shown in Table 3.
# S. pyogenes = assay: Tube dilution (Nutrient broth), S. pyogenes; assay type: cell-based; conditions: Streptococcus pyogenes, Sp-3 S. pyogenes A9604, Table 3
# Protocol: as §1
# S. aureus = assay: Tube dilution (Nutrient broth), S. aureus; assay type: cell-based; conditions: Staphylococcus aureus
# Protocol: as §1
# S. enteritidis = assay: Tube dilution (Nutrient broth), S. enteritidis; assay type: cell-based; conditions: Salmonella enterica, Se-1 S. enteritidis A9531, Table 3
# Protocol: as §1
# E. coli = assay: Tube dilution (Nutrient broth), E. coli; assay type: cell-based; conditions: Escherichia coli
# Protocol: as §1
# K. pneumoniae = assay: Tube dilution (Nutrient broth), K. pneumoniae; assay type: cell-based; conditions: Klebsiella pneumoniae
# P. mirabilis = assay: Tube dilution (Nutrient broth), P. mirabilis; assay type: cell-based; conditions: Proteus mirabilis, Pm-2 P. mirabilis A9900, Table 3
# Protocol: as §1
# P. morganii = assay: Tube dilution (Nutrient broth), P. morganii; assay type: cell-based; conditions: Morganella morganii
# Protocol: as §1
# S. marcescens = assay: Tube dilution (Nutrient broth), S. marcescens; assay type: cell-based; conditions: Serratia marcescens
# Protocol: as §1
# E. cloacae = assay: Tube dilution (Nutrient broth), E. cloacae; assay type: cell-based; conditions: Enterobacter cloacae, El-1 E. cloacae A9656, Table 3
# Protocol: as §1
# P. aeruginosa = assay: Tube dilution (Nutrient broth), P. aeruginosa; assay type: cell-based; conditions: Pseudomonas aeruginosa
# Protocol: as §1
# P. aeruginosa A9843 [1] = assay: Effect of inoculum size on MIC, serial tube dilution (Nutrient Broth); assay type: cell-based; conditions: for MIC ratio b/a: inoculum 5.3 × 10^5 / 5.3 × 10^4 cell/ml; for MIC ratio c/a: inoculum 5.3 × 10^6 / 5.3 × 10^4 cell/ml
# Protocol: (§2) The effect of inoculum size of the MIC and MBC (Minimum Bacteriacidal Concentration) of BB-P598 against P. aeruginosa A9843 also was determined. The MIC's were determined by the serial tube dilution method in Nutrient Broth using four levels of inoculum size (5.3×10^3, 5.3×10^4, 5.3×10^5 and 5.3×10^6 cells/ml), along with sulbenicillin as a reference standard.
# P. aeruginosa A9843 [2] = assay: Effect of inoculum size on MBC and MBC/MIC ratio; assay type: cell-based; conditions: Table 5; for MBC: Pseudomonas aeruginosa, 99% killed
# Protocol: as §2
# Subsequent to the above MIC determinations, aliquots from the non-turbid tubes were added to Nutrient Agar plates to determine the MBC value. The MBC was assigned to the lowest concentration which killed 99% of the original cell population.
# P. aeruginosa A9843 [3] = assay: In vivo activity in experimental infection in mice, P. aeruginosa A9843; conditions: single; for Survival/Tested: 100×LD50 challenge; for ED50: Pseudomonas aeruginosa, A9843, sc, dose required to protect 50% of the infected mice, read-out: PD50
# Protocol: (§3) BB-P598 was evaluated in vivo in experimental infections in mice. The pathogenic bacteria employed were P. aeruginosa A9843, E. coli Juhl and S. aureus Smith. Mice were challenged intraperitoneally with a 100×LD50 dose of the pathogens in a 5% suspension of hog gastric mucin. The penicillin was administered subcutaneously as a single treatment, just after the bacterial challenge.
# (§4) PD50 = Protective Dose50 , i.e. the dose required to give
# (§5) protection to 50% of the infected mice.
# E. coli Juhl [4] = assay: In vivo activity in experimental infection in mice, E. coli Juhl; conditions: single; for Survival/Tested: 100×LD50 challenge; for ED50: Escherichia coli, sc, dose required to protect 50% of the infected mice, read-out: PD50
# Protocol: as §3, §4, §5
# S. aureus Smith [5] = assay: In vivo activity in experimental infection in mice, S. aureus Smith; conditions: single; for Survival/Tested: 100×LD50 challenge; for ED50: Staphylococcus aureus, sc, dose required to protect 50% of the infected mice, read-out: PD50
# Protocol: as §3, §4, §5
# P. aeruginosa A9843 [6] = assay: MIC of the infecting strain with the in vivo test, P. aeruginosa A9843; assay type: cell-based; conditions: Pseudomonas aeruginosa, Table 7
# E. coli Juhl [7] = assay: MIC of the infecting strain with the in vivo test, E. coli Juhl; assay type: cell-based; conditions: Escherichia coli, Table 7
# S. aureus Smith [8] = assay: MIC of the infecting strain with the in vivo test, S. aureus Smith; assay type: cell-based; conditions: Staphylococcus aureus, Table 7, read-out: MC
# Pseudomonas = assay: Agar dilution, activity against Pseudomonas strains; assay type: cell-based
# Protocol: (§6) The Minimum Inhibitory Concentrations (MIC) for sodium 6-[D-(-)-α-phenyl-α-(7-hydroxy-4-oxo-4H-pyrimido[1,2-b]pyridazin-3-ylcarboxamido)acetamido]penicillanate (BB-P598) and sulbenicillin were determined by the serial twofold agar dilution method using Steers' apparatus on Mueller-Hinton agar plates against 31 test organisms for the primary screening (Table 1) and also against 61 strains of Pseudomonas aeruginosa for the secondary evaluation (Table 2).
# [9] = system: S. aureus and the Gram-negative organisms except Pseudomonas; assay: Agar dilution, activity against S. aureus and Gram-negative organisms except Pseudomonas; assay type: cell-based; conditions: most of the 6 strains of S. aureus and 19 Gram-negative strains except Pseudomonas
# Protocol: as §6
# Pseudomonas aeruginosa = conditions: prior art penicillins; cited from earlier work
# [10] = Sa-2 S. aureus Smith +50% serum, Table 3
# [11] = Sa-11 S. aureus BX-1633 A9606, Table 3
# [12] = Sa-44 S. aureus A15097, Table 3
# [13] = Kp-3 K. pneumoniae A9977, Table 3
# [14] = Kp-4 K. pneumoniae A15130, Table 3
# [15] = Pa-13 P. aeruginosa A9843, Table 3
# [16] = Pa-19 P. aeruginosa A20229, Table 3
# [17] = Pa-57 P. aeruginosa A20546, Table 3
# [18] = Pseudomonas aeruginosa, A9843, inoculum 5.3 × 10^4 cell/ml, Nutrient Broth, Table 4, read-out: MIC (a)
# [19] = Pseudomonas aeruginosa, A9843, inoculum 5.3 × 10^4 cell/ml, Table 5, read-out: MIC
# [20] = Pseudomonas aeruginosa, A9843, inoculum 5.3 × 10^6 cell/ml, Nutrient Broth, Table 4, read-out: MIC (c)
# [21] = A9843, inoculum 5.3 × 10^3 cell/ml
# [22] = A9843, inoculum 5.3 × 10^4 cell/ml
compound,measurement,setting,value
"CC1(C)S[C@@H]2[C@H](NC(=O)[C@H](NC(=O)c3cnc4ccc(O)nn4c3=O)c3ccccc3)C(=O)N2[C@H]1C(=O)O [BB-P598, sodium 6-[D-(-)-α-phenyl-α-(7-hydroxy-4-oxo-4H-pyrimido[1,2-b]pyridazin-3-ylcarboxamido)acetamido]penicillanate]",MIC,D. pneumoniae,0.01 µg/mL
same,MIC,S. pyogenes,0.08 µg/mL
same,MIC,S. aureus; [10],1.6 µg/mL
same,MIC,S. aureus; [11],50 µg/mL
same,MIC,S. aureus; [12],100 µg/mL
same,MIC,S. enteritidis,3.1 µg/mL
same,MIC,"E. coli; Ec-1 E. coli NIHJ, Table 3",6.3 µg/mL
same,MIC,"E. coli; Ec-58 E. coli A9675, Table 3",50 µg/mL
same,MIC,K. pneumoniae; [13],12.5 µg/mL
same,MIC,K. pneumoniae; [14],> 100 µg/mL
same,MIC,P. mirabilis,6.3 µg/mL
same,MIC,"P. morganii; Pg-8 P. morganii A15153, Nutrient broth, Table 3, read-out: MIC",> 100 µg/mL
same,MIC,"S. marcescens; Sm-1 S. marcescens A20019, Nutrient broth, Table 3, read-out: MIC",50 µg/mL
same,MIC,E. cloacae,100 µg/mL
same,MIC,P. aeruginosa; [15],6.3 µg/mL
same,MIC,P. aeruginosa; [16],6.3 µg/mL
same,MIC,P. aeruginosa; [17],3.1 µg/mL
same,MIC,"P. aeruginosa A9843 [1]; Pseudomonas aeruginosa, A9843, inoculum 5.3 × 10^3 cell/ml, Nutrient Broth, Table 4, read-out: MIC",6.3 µg/mL
same,MIC,"P. aeruginosa A9843 [1]; Pseudomonas aeruginosa, A9843, inoculum 5.3 × 10^3 cell/ml, Table 5, read-out: MIC",6.3 µg/mL
same,MIC,P. aeruginosa A9843 [1]; [18],12.5 µg/mL
same,MIC,P. aeruginosa A9843 [1]; [19],12.5 µg/mL
same,MIC,"P. aeruginosa A9843 [1]; Pseudomonas aeruginosa, A9843, inoculum 5.3 × 10^5 cell/ml, Nutrient Broth, Table 4, read-out: MIC (b)",≤ 25 µg/mL
same,MIC,P. aeruginosa A9843 [1]; [20],> 100 µg/mL
same,MIC ratio b/a,P. aeruginosa A9843 [1]; Table 4,2
same,MIC ratio c/a,P. aeruginosa A9843 [1]; Table 4,> 8
same,MBC,P. aeruginosa A9843 [2]; [21],50 µg/mL
same,MBC,P. aeruginosa A9843 [2]; [22],> 100 µg/mL
same,MBC/MIC,P. aeruginosa A9843 [2]; inoculum 5.3 × 10^3 cell/ml,8
same,MBC/MIC,P. aeruginosa A9843 [2]; inoculum 5.3 × 10^4 cell/ml,> 8
same,Survival/Tested,P. aeruginosa A9843 [3]; 1.6 mg/kg sc,0/5
same,Survival/Tested,P. aeruginosa A9843 [3]; 6.3 mg/kg sc,1/5
same,Survival/Tested,P. aeruginosa A9843 [3]; 25 mg/kg sc,1/5
same,Survival/Tested,P. aeruginosa A9843 [3]; 100 mg/kg sc,3/5
same,ED50,P. aeruginosa A9843 [3],54 mg/kg
same,Survival/Tested,E. coli Juhl [4]; 1.6 mg/kg sc,0/5
same,Survival/Tested,E. coli Juhl [4]; 6.3 mg/kg sc,1/5
same,Survival/Tested,E. coli Juhl [4]; 25 mg/kg sc,2/5
same,Survival/Tested,E. coli Juhl [4]; 100 mg/kg sc,3/5
same,ED50,E. coli Juhl [4],40 mg/kg
same,Survival/Tested,S. aureus Smith [5]; 1.6 mg/kg sc,0/5
same,Survival/Tested,S. aureus Smith [5]; 6.3 mg/kg sc,5/5
same,Survival/Tested,S. aureus Smith [5]; 25 mg/kg sc,5/5
same,Survival/Tested,S. aureus Smith [5]; 100 mg/kg sc,5/5
same,ED50,S. aureus Smith [5],3.1 mg/kg
same,MIC,P. aeruginosa A9843 [6],6.3 µg/mL
same,MIC,E. coli Juhl [7],25 µg/mL
same,MIC,S. aureus Smith [8],3.1 µg/mL
same,mean % relative activity to sulbenicillin,Pseudomonas; 6 strains of Pseudomonas in Table 1,713%
same,activity relative to sulbenicillin (in words),Pseudomonas; Pseudomonas,significantly more active than sulbenicillin
same,activity relative to sulbenicillin (in words),[9],equal to or less active than sulbenicillin
"CC1(C)S[C@@H]2[C@H](NC(=O)C(C(=O)O)c3ccccc3)C(=O)N2[C@H]1C(=O)O (stereo partly drawn) [Carbenicillin, reference compound]",potency against Pseudomonas aeruginosa (in words),Pseudomonas aeruginosa,only a relatively low potency
"CC1(C)S[C@@H]2[C@H](NC(=O)C(c3ccccc3)S(=O)(=O)O)C(=O)N2[C@H]1C(=O)O (stereo partly drawn) [Sulbenicillin, reference compound]",MIC,D. pneumoniae,0.08 µg/mL
same,MIC,S. pyogenes,0.31 µg/mL
same,MIC,S. aureus; [10],3.1 µg/mL
same,MIC,"S. aureus; Sa-2 S. aureus Smith A9537, Table 3",3.1 µg/mL
same,MIC,S. aureus; [11],12.5 µg/mL
same,MIC,S. aureus; [12],25 µg/mL
same,MIC,S. enteritidis,1.6 µg/mL
same,MIC,"E. coli; Ec-1 E. coli NIHJ, Table 3",6.3 µg/mL
same,MIC,"E. coli; Ec-58 E. coli A9675, Table 3",100 µg/mL
same,MIC,K. pneumoniae; [13],6.3 µg/mL
same,MIC,K. pneumoniae; [14],> 100 µg/mL
same,MIC,P. mirabilis,0.8 µg/mL
same,MIC,P. morganii,12.5 µg/mL
same,MIC,S. marcescens,25 µg/mL
same,MIC,E. cloacae,50 µg/mL
same,MIC,P. aeruginosa; [15],25 µg/mL
same,MIC,P. aeruginosa; [16],> 100 µg/mL
same,MIC,P. aeruginosa; [17],25 µg/mL
same,MIC,P. aeruginosa A9843 [1]; [18],50 µg/mL
same,MIC,P. aeruginosa A9843 [1]; [19],50 µg/mL
same,MIC,P. aeruginosa A9843 [1]; [20],> 400 µg/mL
same,MIC,"P. aeruginosa A9843 [1]; inoculum 5.3 × 10^3 cell/ml, Table 5",25 µg/mL
same,MIC ratio b/a,P. aeruginosa A9843 [1]; Table 4,4
same,MIC ratio c/a,P. aeruginosa A9843 [1]; Table 4,> 8
same,MBC,P. aeruginosa A9843 [2]; [21],100 µg/mL
same,MBC,P. aeruginosa A9843 [2]; [22],200 µg/mL
same,MBC/MIC,P. aeruginosa A9843 [2]; inoculum 5.3 × 10^3 cell/ml,4
same,MBC/MIC,P. aeruginosa A9843 [2]; inoculum 5.3 × 10^4 cell/ml,4
same,Survival/Tested,P. aeruginosa A9843 [3]; 1.6 mg/kg sc,0/5
same,Survival/Tested,P. aeruginosa A9843 [3]; 6.3 mg/kg sc,0/5
same,Survival/Tested,P. aeruginosa A9843 [3]; 25 mg/kg sc,0/5
same,Survival/Tested,P. aeruginosa A9843 [3]; 100 mg/kg sc,2/5
same,Survival/Tested,P. aeruginosa A9843 [3]; 400 mg/kg sc,4/5
same,ED50,P. aeruginosa A9843 [3],140 mg/kg
same,Survival/Tested,E. coli Juhl [4]; 1.6 mg/kg sc,0/5
same,Survival/Tested,E. coli Juhl [4]; 6.3 mg/kg sc,1/5
same,Survival/Tested,E. coli Juhl [4]; 25 mg/kg sc,5/5
same,Survival/Tested,E. coli Juhl [4]; 100 mg/kg sc,5/5
same,ED50,E. coli Juhl [4],9.5 mg/kg
same,Survival/Tested,S. aureus Smith [5]; 0.4 mg/kg sc,0/5
same,Survival/Tested,S. aureus Smith [5]; 1.6 mg/kg sc,0/5
same,Survival/Tested,S. aureus Smith [5]; 6.3 mg/kg sc,5/5
same,Survival/Tested,S. aureus Smith [5]; 25 mg/kg sc,5/5
same,ED50,S. aureus Smith [5],3.1 mg/kg
same,MIC,P. aeruginosa A9843 [6],25 µg/mL
same,MIC,E. coli Juhl [7],25 µg/mL
same,MIC,S. aureus Smith [8],6.3 µg/mL
same,potency against Pseudomonas aeruginosa (in words),Pseudomonas aeruginosa,only a relatively low potency
